The test system of this assay is Yellow Fever Mosquito Aedes aegypti. The assay can be described thus: Insecticidal assay 4, yellow fever mosquito larvae, 96-well plate. The note with it: A. aegypti first instar larvae in water; 1.5 microliters of 4 micrograms per microliter in DMSO per well; assessed after 72 hours at 22° C. Type of assay: in vivo. The source says: 4. Insecticidal Assay for Yellow Fever Mosquito Aedes aegypti:
Objective: To evaluate the insecticidal activity of compounds against A. aegypti larvae through contact and ingestion.
Test unit preparation: Empty, 96-well microtiter plates are loaded onto a robotic dispensing system prior to application.
Formulation and application: Compounds are formulated in dimethyl sulfoxide at 4-micrograms per microliter. A robotic system dispenses 1.5 microliters of each formulated experimental solution into each well of an empty, 96-well microtiter plate. Each treatment is replicated 3 times.
Infesting: Subsequent to application, recently hatched, mosquito larvae are suspended in water containing 0.4% mosquito diet (1:3 mix of brewers yeast to liver powder). A robotic system dispenses aliquots of this aqueous solution containing 5-8 first instar mosquitoes into each well of the treated plates.
Holding and assessment: After infestation, the plates are covered with a matching clear plastic lid. Infested plates are stacked and held in an incubator at 22° C. for 72 hours. At assessment, cells are examined by means of a dissecting microscope for insecticidal effects.

This passage reports insecticidal activity results from US8445500B2, “Pesticidal compositions” (Dow AgroSciences, LLC., priority 2007, dated 2013).

Take `CN(Nc1nc(C(F)(F)F)nc(C(F)(F)F)c1C#N)c1ccc(C#N)cn1` [Compound 30]: the insecticidal activity result was “significant insecticidal activity”.
